These results are taken from ChEMBL document CHEMBL5728637, “Pyrazolopyrimidine derivatives, preparation method thereof, and pharmaceutical composition for use in preventing or treating cancer, autoimmune disease and brain disease containing the same as an active ingredient” (2021).

The target in the test is Tyrosine-protein kinase BTK (Homo sapiens, UniProt Q06187). The test can be described thus: Inhibitory Assay: BTK enzyme evaluation with each compound of examples of the invention was performed by using BTK enzyme inhibition diagnosis kit (Cisbio, Codolet, France). ATP (adenosine triphosphate), BTK, peptide (biotin-Aca-[…]-NH2) and each compound of examples of the invention were mixed, followed by reaction for 30 minutes. Then, EDTA (ethylenediaminetetraacetic acid) was added thereto in order to terminate the reaction. At this time, the EDTA solution contained curopium-containing antibody (antiphosphoresidue antibody) and straptavidin-XL665 (SA-XL665, Cisbio). After incubation for 1 hour, fluorescence was measured. The emission values of 665 nm and 620 nm excited at 337 nm were measured with Envision reader.
Sequence of Tyrosine-protein kinase BTK (Q06187 whole entry): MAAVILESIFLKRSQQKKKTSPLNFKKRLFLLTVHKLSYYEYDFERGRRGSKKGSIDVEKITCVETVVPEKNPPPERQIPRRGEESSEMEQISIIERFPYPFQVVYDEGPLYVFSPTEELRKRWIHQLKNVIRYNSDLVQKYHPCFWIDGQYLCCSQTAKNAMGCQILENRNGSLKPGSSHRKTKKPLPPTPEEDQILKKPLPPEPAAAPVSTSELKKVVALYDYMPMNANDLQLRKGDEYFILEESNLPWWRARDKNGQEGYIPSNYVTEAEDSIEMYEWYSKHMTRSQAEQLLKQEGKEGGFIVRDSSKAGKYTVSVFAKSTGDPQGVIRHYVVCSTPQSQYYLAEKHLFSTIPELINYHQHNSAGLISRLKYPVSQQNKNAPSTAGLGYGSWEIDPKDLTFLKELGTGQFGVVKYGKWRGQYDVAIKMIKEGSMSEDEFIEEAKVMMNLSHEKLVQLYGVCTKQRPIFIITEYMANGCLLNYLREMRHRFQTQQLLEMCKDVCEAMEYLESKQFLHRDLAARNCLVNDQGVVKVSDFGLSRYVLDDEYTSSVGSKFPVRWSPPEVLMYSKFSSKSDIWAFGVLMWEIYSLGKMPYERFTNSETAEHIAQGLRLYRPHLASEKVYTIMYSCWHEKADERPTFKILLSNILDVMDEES
With `Cc1ccc(NC(=O)Nc2cccc(C(F)(F)F)c2)cc1Nc1nn(C)c2nc(Nc3ccc4c(c3)CNCC4)ncc12`, 26.7 nM corresponded to half-maximal inhibition (IC50). That is a double-digit nanomolar value.

On to `Cc1cccc(C)c1Nc1n[nH]c2nc(Nc3ccc4c(c3)CNCC4)ncc12`, for which the IC50 (commonly the concentration that inhibits the measured activity by half) came out at 0.3 nM.

In turn, `Cn1nc(Nc2c(Cl)cccc2Cl)c2cnc(Nc3ccc4c(c3)CCNC4)nc21` returned an IC50 of 0.67 nM. This IC50 lies about 2.2-fold higher than the previous one.

`Cc1cccc(C)c1Nc1nn(C)c2nc(Nc3ccc4c(c3)CNCC4)ncc12` registered a 50% inhibitory concentration (IC50) of 0.6 nM.
